Data reported in patent US20230233425A1, “USE OF VOLATILE COMPOSITIONS TO LIMIT OR ELIMINATE THE PERCEPTION OF MALODOR” (Firmenich SA, priority 2017, published 2023).
Where “and” joins values, the source holds several entries; their conditions need not be identical. Identical values can stand only once. Like-named read-outs stand apart in the source and are kept apart here. Marks after values point to notes of the source that are not given here.

Assays:
[1] = system: geonol malodor (earthy/moss odor) perception; experiment: Sensory evaluation of geonol earthy/moss odor in iso-intense binary mixtures (glass jars); assay type: in vivo, human; details: iso-intense binary mixture
Excerpt: Sensory Evaluation: Five 16 oz glass jars containing either REF (geonol only), geonol only control, antagonist only, mixture of geonol and isointense antagonist, or mixture of geonol and low intensity antagonist were presented to the panelists (last four samples were randomized across panelists). The panelists were asked to familiarize themselves with the earthy/moss odor quality from the REF jar first, then rate the pleasantness, earthy/moss odor intensity and overall odor intensity of the next four samples on a 0-10 linear scale. The inter-stimulus interval between the samples was two minutes to avoid adaptation.

[2] = system: 1-octen-3-ol mushroom/earthy/fungal odor perception; experiment: Human sensory performance of test compounds with and without 1-octen-3-ol; assay type: in vivo; details: for % Mushroom/Earthy/Fungal Odor: Test Compound Only
[3] = system: OR11A1, or the OR2M3 olfactory receptor; experiment: Geonol olfactory receptor antagonist cell-based screening, inhibitory dose-response vs geonol EC80; parameters: species or system human; details: geonol at EC80; for IC50: read-out: IC50
[4] = system: OR2W1 or the OR1A1 olfactory receptor; experiment: 1-octen-3-ol olfactory receptor antagonist cell-based dose-response vs 1-octen-3-ol EC80
Description: Each cell line was screened with a volatile compound library for their inhibitory properties and potential 1-octen-3-ol smell inhibition.
Single concentration monitoring of the 1-octen-3-ol induced cell activity in the presence or absence of a test compound allowed for the identification of compounds with a putative suppression or inhibitory effect.

[5] = system: geonol earthy/moss odor perception; experiment: Human sensory performance of test compounds with and without geonol; assay type: in vivo; details: for % Earthy/Moss Odor: Test Compound Only
Procedure, shortened: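 Panelists first learned the earthy/moss quality from a geonol-only reference, then rated pleasantness, earthy/moss intensity and overall intensity of geonol alone, antagonist alone, and geonol mixed with isointense or low-intensity antagonist on a 0-10 linear scale. Samples were presented in glass jars in randomized order with two-minute intervals.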

[6] = target: 1-octen-3-ol receptors OR2W1, Olfr93, Olfr120, Olfr398; experiment: Antagonists of 1-octen-3-ol receptors (Example 11); assay type: cell-based, mouse and human; parameters: Inhibition(%): concentration or dose not given beside the values; details: Table 19
Olfr743 = Olfr743 (Mus musculus, UniProt L7N1Y2); experiment: Indole antagonist dose-response, cAMP HTRF in HEK293T, vs indole EC80; assay type: cell-based; details: Table 23
Description: (§1) Functional dose-response experiments were performed to identify compounds capable of antagonizing indole-sensitive receptors previously identified (U.S. Pat. No. 9,914,760 B2). Using a cell-based assay, mouse receptor Olfr738, Olfr739, Olfr740, Olfr741, 0fr742, Olfr743, Olfr744, Olfr746, Olfr748 and Olfr749 were tested in an HEK293T cell line wherein the endogenous RTP1 gene has been activated and the odorant receptor chaperone was expressed (described in WO2016201153A1). The receptor genes were tagged with a Flag-Rho tag combination. Receptor genes were co-transfected with the canonical olfactory human G-protein alpha subunit Golf gene. Co-expression of the human Golf activates the Gs transduction pathway that leads to an internal cAMP increase upon binding to the appropriate ligand (indole here). Odorant-induced activity was detected by measuring the cAMP increase in the cytosol using an HTRF based kit (CisBio, cAMP dynamic 2 kit, cat. 62AM4PEJ). The receptors were exposed to binary mixtures of increasing concentrations of the test compounds in the presence of a potent activation concentration of indole (EC80) for each receptor. […] All the compounds listed decreased the indole induced activity of at least one receptor.

Olfr749 = target: T1, Olfr749 (Mus musculus, UniProt E9Q438); experiment: as above; assay type: cell-based; details: Table 23
T1 construct: Flag; Rho tag; expressed in transfected cells
T1 sequence (E9Q438 1-313): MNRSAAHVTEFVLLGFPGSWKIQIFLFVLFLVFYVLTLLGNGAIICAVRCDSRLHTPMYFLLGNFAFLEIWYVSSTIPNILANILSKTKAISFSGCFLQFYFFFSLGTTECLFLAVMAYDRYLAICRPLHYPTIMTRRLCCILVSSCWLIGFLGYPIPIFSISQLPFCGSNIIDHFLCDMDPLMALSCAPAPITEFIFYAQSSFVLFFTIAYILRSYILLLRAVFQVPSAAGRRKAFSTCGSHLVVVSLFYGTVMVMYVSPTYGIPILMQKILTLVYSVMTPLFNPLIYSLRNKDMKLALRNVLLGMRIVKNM
Description: as §1

Olfr744 = target: T2, Olfr744 (Mus musculus, UniProt Q7TRM0); experiment: as above; assay type: cell-based; details: Table 23
T2 construct: Flag; Rho tag; expressed in transfected cells
T2 sequence (Q7TRM0 1-323): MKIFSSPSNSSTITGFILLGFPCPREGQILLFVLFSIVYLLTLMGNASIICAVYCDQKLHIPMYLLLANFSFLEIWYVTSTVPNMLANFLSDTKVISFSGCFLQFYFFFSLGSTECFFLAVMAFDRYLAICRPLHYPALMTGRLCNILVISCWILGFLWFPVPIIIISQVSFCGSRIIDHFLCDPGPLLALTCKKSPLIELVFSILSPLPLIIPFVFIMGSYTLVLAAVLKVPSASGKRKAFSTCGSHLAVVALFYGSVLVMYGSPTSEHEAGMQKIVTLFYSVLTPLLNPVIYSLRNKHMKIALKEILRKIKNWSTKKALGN
Description: as §1

Olfr741 = Olfr741 (Mus musculus, UniProt L7N1Y5); experiment: as above; assay type: cell-based
Description: (§2) Using a cell-based assay, mouse receptor Olfr738, Olfr739, Olfr740, Olfr741, 0fr742, Olfr743, Olfr744, Olfr746, Olfr748 and Olfr749 were tested in an HEK293T cell line wherein the endogenous RTP1 gene has been activated and the odorant receptor chaperone was expressed (described in WO2016201153A1). The receptor genes were tagged with a Flag-Rho tag combination. Receptor genes were co-transfected with the canonical olfactory human G-protein alpha subunit Golf gene. Co-expression of the human Golf activates the Gs transduction pathway that leads to an internal cAMP increase upon binding to the appropriate ligand (indole here). Odorant-induced activity was detected by measuring the cAMP increase in the cytosol using an HTRF based kit (CisBio, cAMP dynamic 2 kit, cat. 62AM4PEJ).

Olfr738 = Olfr738 (Mus musculus, UniProt L7N1X7); experiment: as above; assay type: cell-based; details: vs indole EC80; for IC50: read-out: Olfr738 IC50
Description: as §2

Olfr742 = Olfr742 (Mus musculus, UniProt A2RTP5); experiment: as above; assay type: cell-based; details: vs indole EC80; for IC50: read-out: Olfr742 IC50; for Emax: HEK-293T, read-out: Olfr742 % Inhibition
Description: as §2

Olfr740 = Olfr740 (Mus musculus, UniProt E9PV79); experiment: as above; assay type: cell-based; details: vs indole EC80; for IC50: read-out: Olfr740 IC50; for Emax: HEK-293T, read-out: Olfr740 % Inhibition
Description: as §2

Olfr739 = Olfr739 (Mus musculus, UniProt E9Q1P0); experiment: as above; assay type: cell-based
Description: as §1

[7] = target: T3, OR51E1 olfactory receptor (Homo sapiens, UniProt Q8TCB6); experiment: Butyric acid olfactory receptor antagonist cell-based dose-response vs butyric acid EC80; details: butyric acid at EC80; Table 5
T3 construct: expressed in transfected cells
T3 sequence (Q8TCB6 1-318): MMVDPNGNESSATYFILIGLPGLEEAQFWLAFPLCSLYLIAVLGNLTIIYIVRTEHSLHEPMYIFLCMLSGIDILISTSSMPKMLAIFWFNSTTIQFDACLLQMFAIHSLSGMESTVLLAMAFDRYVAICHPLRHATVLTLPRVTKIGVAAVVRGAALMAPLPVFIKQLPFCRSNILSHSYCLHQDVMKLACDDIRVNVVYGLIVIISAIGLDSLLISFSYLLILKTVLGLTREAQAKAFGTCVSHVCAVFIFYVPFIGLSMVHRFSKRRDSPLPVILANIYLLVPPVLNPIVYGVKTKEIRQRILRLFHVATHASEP

[8] = Low Dilution Test Compound + 1-octen-3-ol (0.15%)
[9] = Medium Dilution Test Compound + 1-octen-3-ol (0.15%)
[10] = Low Dilution Test Compound + Geonol (0.1%)
[11] = Medium Dilution Test Compound + Geonol (0.1%)
[12] = Table 22, second listing of the same compounds
[13] = Table 22, first listing (r7-r45)

Chain of Olfr741 (L7N1Y5 entry or part of it): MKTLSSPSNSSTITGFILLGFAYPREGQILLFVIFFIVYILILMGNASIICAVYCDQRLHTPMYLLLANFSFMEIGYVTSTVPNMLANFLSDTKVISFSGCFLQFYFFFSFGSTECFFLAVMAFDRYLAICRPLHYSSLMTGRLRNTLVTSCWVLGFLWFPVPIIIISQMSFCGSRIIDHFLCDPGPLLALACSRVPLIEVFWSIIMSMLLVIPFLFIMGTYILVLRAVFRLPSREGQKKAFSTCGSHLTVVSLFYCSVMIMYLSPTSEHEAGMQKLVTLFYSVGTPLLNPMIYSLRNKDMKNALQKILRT
Chain of Olfr740 (E9PV79 entry or part of it): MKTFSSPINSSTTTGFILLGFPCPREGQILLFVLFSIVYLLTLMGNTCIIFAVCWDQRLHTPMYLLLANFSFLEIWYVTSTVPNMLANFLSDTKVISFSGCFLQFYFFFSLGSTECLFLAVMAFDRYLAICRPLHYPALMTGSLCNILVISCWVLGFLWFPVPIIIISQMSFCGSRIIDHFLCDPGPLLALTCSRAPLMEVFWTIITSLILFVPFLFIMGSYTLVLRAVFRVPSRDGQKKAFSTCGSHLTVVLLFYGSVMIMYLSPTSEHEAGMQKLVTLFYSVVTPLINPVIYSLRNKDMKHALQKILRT
Chain of Olfr738 (L7N1X7 entry or part of it): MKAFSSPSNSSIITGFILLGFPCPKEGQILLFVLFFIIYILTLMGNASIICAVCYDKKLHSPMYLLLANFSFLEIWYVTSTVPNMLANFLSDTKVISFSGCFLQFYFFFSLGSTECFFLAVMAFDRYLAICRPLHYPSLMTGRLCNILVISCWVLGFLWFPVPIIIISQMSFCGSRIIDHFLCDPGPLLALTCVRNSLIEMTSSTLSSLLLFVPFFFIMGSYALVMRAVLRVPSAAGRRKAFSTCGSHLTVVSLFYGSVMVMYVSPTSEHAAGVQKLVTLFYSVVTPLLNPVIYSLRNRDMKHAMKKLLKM
Chain of Olfr739 (E9Q1P0 entry or part of it): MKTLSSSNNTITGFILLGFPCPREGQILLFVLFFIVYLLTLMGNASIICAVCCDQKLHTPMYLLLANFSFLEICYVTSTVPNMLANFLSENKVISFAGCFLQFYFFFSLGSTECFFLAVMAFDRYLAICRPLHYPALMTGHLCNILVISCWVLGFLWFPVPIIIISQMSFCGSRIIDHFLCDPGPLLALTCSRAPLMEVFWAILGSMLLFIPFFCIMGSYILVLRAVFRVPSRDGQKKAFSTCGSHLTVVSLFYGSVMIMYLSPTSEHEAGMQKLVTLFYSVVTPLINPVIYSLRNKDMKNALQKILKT
Chain of Olfr742 (A2RTP5 entry or part of it): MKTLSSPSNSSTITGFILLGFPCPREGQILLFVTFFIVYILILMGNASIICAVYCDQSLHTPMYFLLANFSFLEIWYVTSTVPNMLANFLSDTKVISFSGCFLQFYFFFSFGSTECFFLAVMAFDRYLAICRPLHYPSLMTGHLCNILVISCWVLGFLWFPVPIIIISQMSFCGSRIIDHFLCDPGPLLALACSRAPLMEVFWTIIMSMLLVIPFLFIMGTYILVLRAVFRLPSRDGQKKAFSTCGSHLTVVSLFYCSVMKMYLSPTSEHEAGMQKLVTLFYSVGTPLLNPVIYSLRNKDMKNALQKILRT
Chain of Olfr743 (L7N1Y2 entry or part of it): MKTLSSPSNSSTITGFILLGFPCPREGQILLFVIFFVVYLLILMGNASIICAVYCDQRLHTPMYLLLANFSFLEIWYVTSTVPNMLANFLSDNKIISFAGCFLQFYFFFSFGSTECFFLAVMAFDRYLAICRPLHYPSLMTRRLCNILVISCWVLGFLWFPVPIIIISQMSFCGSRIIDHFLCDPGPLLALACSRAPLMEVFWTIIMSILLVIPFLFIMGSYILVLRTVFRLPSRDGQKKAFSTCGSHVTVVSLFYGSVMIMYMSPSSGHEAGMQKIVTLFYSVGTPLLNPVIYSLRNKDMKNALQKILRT

1,4,8-trimethyl-13-oxabicyclo[10.1.0]trideca-4,8-diene; 1,5,8-trimethyl-13-oxabicyclo[10.1.0]trideca-4,8-diene
% Remaining in human sensory tests [1]: 85%
% Mushroom/Earthy/Fungal Odor Remaining [2, 8]: 93.80%
% Mushroom/Earthy/Fungal Odor Remaining [2, 9]: 79.50%
% Mushroom/Earthy/Fungal Odor [2]: 30.20%
% Inhibition [3]: 50%
IC50 [3]: 81 µM
IC50 ([4]; 1-octen-3-ol at EC80): 266 µM
% Inhibition ([4]; maximum inhibition normalized to baseline agonist activity): 70.92%
% Earthy/Moss Odor Remaining [5, 10]: 92.00%
% Earthy/Moss Odor Remaining [5, 11]: 91.50%
% Earthy/Moss Odor [5]: 43.30%

4-(2,6,6-trimethylcyclohexen-1-yl)but-3-en-2-one; 4-(2,6,6-trimethylcyclohex-2-en-1-yl)but-3-en-2-one
% Remaining in human sensory tests [1]: 59* %
% Mushroom/Earthy/Fungal Odor Remaining [2, 8]: 94.80%
% Mushroom/Earthy/Fungal Odor Remaining [2, 9]: 73.90%
% Mushroom/Earthy/Fungal Odor [2]: 20.30%
IC50 [6]: 146 µM
Inhibition(%) [6]: 79%
IC50 (Olfr743): 275 µM and 159 µM
Olfr743 % Inhibition (Olfr743): 114.78% and 112.64%
IC50 (Olfr749): 75.8 µM and 76 µM
IC50 (Olfr744): 125 µM and 159 µM
Olfr744 % Inhibition (Olfr744): 78.23% and 77.99%
% Earthy/Moss Odor Remaining [5, 10]: 73.40%
% Earthy/Moss Odor Remaining [5, 11]: 70.30%
% Earthy/Moss Odor [5]: 27.10%

6(8)-ISOPROPYLQUINOLINE [isopropyl quinoline]
% Remaining in human sensory tests [1]: 110%
IC50 (Olfr741; Table 22, first listing): 91.6 µM
Olfr741 % Inhibition (Olfr741; Table 22, first listing): 54.55%
Olfr738 % Inhibition (Olfr738; Table 22, first listing): 20.66%
IC50 (Olfr738; Table 22, first listing): 120 µM
Olfr738 % Inhibition (Olfr738; [12]): 39.62%
Olfr742 % Inhibition (Olfr742; Table 22, first listing): 72.34%
IC50 (Olfr742; Table 22, first listing): 86.6 µM
Olfr740 % Inhibition (Olfr740; Table 22, first listing): 148.06%
IC50 (Olfr740; Table 22, first listing): 40.9 µM
IC50 [3]: 400 µM
IC50 (Olfr743): 119 µM
Olfr743 % Inhibition (Olfr743): 39.62%
IC50 (Olfr739; Table 22, first listing): 61.3 µM
Olfr739 % Inhibition (Olfr739; Table 22, first listing): 74.96%
Olfr739 % Inhibition (Olfr739; [12]): 116.59%
IC50 (Olfr744): 102 µM
Olfr744 % Inhibition (Olfr744): 116.59%
% Earthy/Moss Odor Remaining [5, 10]: 99.60%
% Earthy/Moss Odor Remaining [5, 11]: 104.70%
% Earthy/Moss Odor [5]: 54.70%

CC1(C)CCCC2(C)CC(=O)CCC12 (racemic)
IC50 (Olfr741; [12]): 106 µM
Olfr741 % Inhibition (Olfr741; [12]): 65.60%
Olfr738 % Inhibition (Olfr738; [12]): 123.10%
Emax (Olfr742; [12]): 97%
Emax (Olfr740; [12]): 81.4%
Olfr739 % Inhibition (Olfr739; [12]): 107.89%

C/C=C/C(=O)C1C(C)=CCCC1(C)C (racemic) [(+−)-(2E)-1-(2,6,6-trimethyl-2-cyclohexen-1-yl)-2-buten-1-one]
IC50 (Olfr741; Table 22, first listing): 110 µM
Olfr741 % Inhibition (Olfr741; Table 22, first listing): 75.65%
IC50 (Olfr738; [13]): 99.8 µM
Olfr738 % Inhibition (Olfr738; Table 22, first listing): 12.19%
Emax (Olfr742; Table 22, first listing): 113%
Emax (Olfr742; [12]): 47.9%
IC50 (Olfr742; [13]): 95.4 µM
Emax (Olfr740; Table 22, first listing): 115%
IC50 (Olfr740; [13]): 137 µM
IC50 (Olfr749): 156 µM
Olfr749 % Inhibition (Olfr749): 47.86%
IC50 [7]: 50.5 µM

CC(C)(C)C1CCC(=O)CC1 [4-t-butylcyclohexanone]
IC50 (Olfr738; [13]): 43.1 µM
Olfr738 % Inhibition (Olfr738; Table 22, first listing): 52.44%
Emax (Olfr740; Table 22, first listing): 213%
IC50 (Olfr740; [13]): 10.6 µM
Olfr739 % Inhibition (Olfr739; Table 22, first listing): 60.32%
IC50 (Olfr739; [13]): 69.9 µM
Olfr739 % Inhibition (Olfr739; [12]): 148.19%
IC50 (Olfr744): 175 µM
Olfr744 % Inhibition (Olfr744): 148.19%

O=C1CCC=CCCCCCCCCCC1 [cyclopentadec-4-en-1-one]
% Remaining in human sensory tests [1]: 47%
% Mushroom/Earthy/Fungal Odor [2]: 25.80%
% Inhibition [3]: 45%
IC50 [3]: 61 µM
IC50 [6]: 57.8 µM
Inhibition(%) [6]: 130%
% Earthy/Moss Odor [5]: 49.90%
